Source: article PMC7954794, “Protein context shapes the specificity of SH3 domain-mediated interactions in vivo” (Nature Communications, 2021)

Tests used:
BBC1 = assay: DHFR-PCA on solid medium, bait BBC1 (Fig. 1B); format: cell-based, Saccharomyces cerevisiae; settings: bait BBC1, label = prey; 2-4 replicates
Source text: (§1) Supplement 41467_2021_21873_MOESM8_ESM.xlsx, sheet "Fig1B" | column: medsize; medrep; Ratio; Score

BZZ1-1 = assay: DHFR-PCA on solid medium, bait BZZ1-1 (Fig. 1B); format: cell-based, Saccharomyces cerevisiae; settings: bait BZZ1-1, label = prey; 4 replicates
Source text: Supplement 41467_2021_21873_MOESM8_ESM.xlsx, sheet "Fig1B" | column: medsize; medrep; Score

BEM1-1 = assay: DHFR-PCA on solid medium, bait BEM1-1 (Fig. 1B); format: cell-based, Saccharomyces cerevisiae; settings: bait BEM1-1, label = prey; for medrep (log2 median colony size normalized to plate background, PCA score): 2-8 replicates
Source text: as §1

BUD14 = assay: DHFR-PCA on solid medium, bait BUD14 (Fig. 1B); format: cell-based, Saccharomyces cerevisiae; settings: bait BUD14, label = prey; for medrep (log2 median colony size normalized to plate background, PCA score): 4 replicates; for Ratio (SH3-deleted/WT medrep): only significant differences showed, PPIs completely lost have a ratio of 0.1 and the gained PPIs 2.5
Source text: as §1

ABP1 = assay: DHFR-PCA on solid medium, bait ABP1 (Fig. 1B); format: cell-based, Saccharomyces cerevisiae; settings: bait ABP1, label = prey; 2-4 replicates
Source text: as §1

[1] = system: 575 putative partners (preys) of 22 WT SH3-containing proteins; assay: DHFR-PCA on solid medium, WT and SH3-deleted baits (Fig. 1B); format: cell-based, Saccharomyces cerevisiae; design: key to Score: 0: SH3-independent; 1: SH3-dependent PPIs; 2: SH3-inhibited PPIs; settings: for medrep (log2 median colony size normalized to plate background, PCA score): bait SLA1-3, DHFR-PCA, label = prey, Replicates 4 (2 for YCR009C, YDR388W, YIL033C); for Score: bait SLA1-3, label = prey
Source text: To assess the requirement of SH3 domains for PPIs in vivo, we first measured binary interactions between 22 WT SH3-containing proteins (Supplementary Fig. 1A) as baits and 575 putative partners from their interconnected signaling networks using the dihydrofolate reductase protein–fragment complementation assay (DHFR-PCA) in the budding yeast Saccharomyces cerevisiae. About 33% (202/607) of the PPIs detected were described before, mostly by direct methods (Supplementary Fig. 1B, C)[11]. We repeated the experiments with baits in which the SH3s were individually replaced with a flexible linker by genome editing (SH3 domain deletion/stuffing, Fig. 1A). The stuffer DNA sequence ([…]) codes for a small flexible poly-Gly with Ser peptide ([…]) that is inspired by previous experiments[12],[13]. About a third of the SH3-containing protein interactome is qualitatively or quantitatively SH3-dependent (171 PPIs out of 607, Fig. 1B and Supplementary Fig. 1B, C). We validated the vast majority of the quantitative changes in low-throughput experiments and excluded that this is simply due to changes in protein abundance in most cases (Supplementary Fig. 1D–G). SH3-binding motifs[14] are more frequent in the SH3-dependent PPI partners when compared to sequences from random proteins, SH3-independent PPI partners or PPI partners that are stronger or gained following SH3 deletions (p values = 1.5 × 10^−17, 0.0038 and 2.1 × 10^−08, respectively; Mann–Whitney test, one-tailed, Fig. 1C). The changes we measure are therefore enriched for PPIs that depend on the direct interactions of the domains with the PPI partners.
The complete list of strains, primers, and gRNAs used in this study can be found in Supplementary Tables 1–3. All constructed yeast strains were validated by polymerase chain reaction (PCR) and confirmed by Sanger sequencing of the locus of interest. Bait strains for the DHFR-PCA experiments were constructed as follows. The genes of interest were fused at their genomic 3′ end by replacing the stop codon with a linker ([…]), the DHFR F[1,2] followed by a smaller linker (GGGGS), a 1× FLAG tag ([…]) and the NATMX4 resistance cassette via homologous recombination (all amplified from pAG25-DHFR[1,2]-linker-FLAG). The set of 615 prey strains (DHFR F[3] fusions in the BY4742 background) were retrieved from the Yeast Protein Interactome Collection[43] with the exception of 73 that were reconstructed (Supplementary Tables 1 and 2). Knockout strains were taken from the yeast knockout collection except for ABP1, BEM1, BZZ1, and SLA1, which were reconstructed by replacing the ORFs with the NATMX4 resistance cassette by homologous recombination in the BY4741 background.
Yeast SH3 domain genomic sequences were replaced by CRISPR–Cas9 genome editing. Each SH3 domain (as defined by the SMART database V8.0 except for Ysc84 SH3 (as defined by PROSITE), see Source Data for all SH3 sequences and Supplementary Table 1 for primers used) was specifically targeted by one gRNA[46]. Yeast competent cells were co-transformed with a pCAS plasmid (Addgene plasmid 60847[47]) expressing both the gRNA of interest and Streptococcus pyogenes Cas9[46] and a donor DNA sequence (stuffer) with 60 bp homology arms surrounding the SH3 DNA sequence. The Stuffer DNA was either PCR amplified or digested from a plasmid. The stuffer DNA sequence ([…]) codes for a small flexible linker ([…]) inspired by protein linkers used in structural biology[12],[13]. This type of linker is frequently used for fusing proteins without affecting the structure of the linked proteins.
The overall DHFR-PCA pipeline is based on Tarassov et al.[43] and the procedures have also been published as a visualized protocol. The screens were performed with robotically manipulated pin tools (BM5-SC1, S&P Robotics Inc.). First, the preys were cherry-picked from 96-well plates to omnitrays in a 384 format on YPD + HPH solid media. […]

BOI2 = assay: DHFR-PCA on solid medium, bait BOI2 (Fig. 1B); format: cell-based, Saccharomyces cerevisiae; settings: bait BOI2, label = prey; for medrep (log2 median colony size normalized to plate background, PCA score): 3-8 replicates
Source text: as §1

BEM1-2 = assay: DHFR-PCA on solid medium, bait BEM1-2 (Fig. 1B); format: cell-based, Saccharomyces cerevisiae; settings: bait BEM1-2, label = prey; 2-8 replicates
Source text: as §1

BOI1 = assay: DHFR-PCA on solid medium, bait BOI1 (Fig. 1B); format: cell-based, Saccharomyces cerevisiae; settings: bait BOI1, label = prey; for medrep (log2 median colony size normalized to plate background, PCA score): 3-8 replicates; for Ratio (SH3-deleted/WT medrep): only significant differences showed, PPIs completely lost have a ratio of 0.1 and the gained PPIs 2.5
Source text: as §1

PAK1 = assay: Co-immunoprecipitation / Western blot NCK2-PAK1 (Fig. S6A-B); format: cell-based, human; settings: Prey PAK1, sheet FigS6A-D
Procedure: (§2) For the experiments with HEK293T cells (1 × 10cm confluent dish for WB and 3 × 15cm for MS), cells were washed in ice-cold PBS and lysed in lysis buffer (20 mM Tris-HCl pH 7.4, 150 mM NaCl, 1 mM EDTA, 0.5% sodium deoxycholate (Millipore Sigma), 10 mM beta-glycerophosphate (Millipore Sigma), 10 mM sodium pyrophosphate (Millipore Sigma), 50 mM NaF (Millipore Sigma)). Protease inhibitors were added to the lysis buffer (P8340 (Millipore Sigma) for WB and PMSF 1 mM, aprotinin 10 µg/mL, leupeptin 10 µg/mL and pepstatin 10 µg/mL (all Millipore Sigma) for MS). Cells were scraped in the lysis buffer and lysed at 4 °C for 20 min and centrifuged for another 20 min at 20,000 g at 4 °C. Bait proteins from the supernatant were immunoprecipitated for 90 min at 4 °C with FLAG-M2 agarose beads (Millipore Sigma) and washed three times in the lysis buffer. Beads were then used for WB or MS experiments (see below).
(§3) Protein extracts and affinity-purified baits from yeast and human lysed cells were migrated on 10% polyacrylamide gels. The separated proteins were then transferred to nitrocellulose membranes. Validation of correct protein loading was done with ponceau staining of the membranes. Before the primary antibody incubations, membranes were blocked in 5% milk. Protein signals were detected on an Amersham Imager 600RGB (GE Healthcare) following the incubation of the membranes with the appropriate HRP-conjugated secondary antibodies and the Clarity Western ECL Substrate (Bio-Rad). The antibodies used in this study are M2-HRP (A8592, Sigma, 1/50,000), rabbit anti-FLAG (F7425, Sigma, 1/1000), PAK (SC-881, Santa Cruz, 1/200), p130cas/BCAR1 (SC-860, Santa Cruz, 1/200), actin (Cell Signaling Technology, 1/2000), anti-mouse HRP (Cell Signaling Technology, 1/10,000) and anti-rabbit HRP (Cell Signaling Technology, 1/10,000). The quantification of the WB signals was performed with the Amersham Imager 600 analysis software (GE Healthcare).
(§4) Supplementary Fig. 6| NCK2 SH3 shuffling affects its interactions with PAK1 and P130CAS/BCAR1 in cells but only slightly alters the availability of the SH3 binding pockets in vitro. A, Western blot analysis of NCK2 SH3-shuffled proteins interaction with PAK1. Each bait is N-terminally fused to a 3XFLAG tag. Loading corresponds to Ponceau staining of the nitrocellulose membrane. Experiment was performed in four replicates in HEK293T cells. B, Western blot quantification of PAK1 co-immunoprecipitation with NCK2.
(§5) Average log2 ratio relative to the WT protein is shown (NCK2mut/NCK2WT, WT NCK2 log2 ratio = 0). Ratios from replicates were compared t o WT NCK2 via pairwise ANOVA statistical […]
(§6) bars indicate the SD. C, Western blot analysis of NCK2 SH3-shuffled proteins association with SH2 target P130CAS/BCAR1. The experiment was performed in four replicates in HEK293T cells stimulated with the tyrosine phosphatase inhibitor pervanadate. D, Quantification of the Western blot signals of P130CAS co-immunoprecipitation with NCK2 as in B,. The four ratios of the replicates were compared to WT NCK2 via pairwise ANOVA statistical test (p -values: […]
(1 picture or pasted object on this page, not shown here)

P130CAS/BCAR1 = assay: Co-immunoprecipitation / Western blot NCK2-P130CAS/BCAR1 (Fig. S6C-D); format: cell-based, human; settings: Prey P130CAS, sheet FigS6A-D
Procedure: Human embryonic kidney 293T cells (HEK293T, ATCC:CRL-3216) were grown in Dulbecco’s Modified Eagle’s medium (DMEM) high glucose complemented with 10% fetal calf serum under 5% CO2 at 37 °C. Transient expression of cDNA in cells was performed by polyethylenimine (PEI, Millipore Sigma) transfections. Enrichment of phospho-dependent PPIs was done by treating HEK293T cells with the tyrosine phosphatase inhibitor pervanadate, freshly made by mixing 4 mM orthovanadate (Millipore Sigma) with 30% H2O2 (Millipore Sigma) in water in a 200:1 volume ratio.
as §2, §3, §4, §5, §6

[2] = average of R1-R4, SD in next column
[3] = only significant differences showed, PPIs completely lost have a ratio of 0.1 and the gained PPIs 2.5

Substance | medrep (log2 median colony size normalized to plate background, PCA score) (BBC1) | medrep (log2 median colony size normalized to plate background, PCA score) (BZZ1-1) | medrep (log2 median colony size normalized to plate background, PCA score) (BEM1-1) | medrep (log2 median colony size normalized to plate background, PCA score) (BUD14) | Ratio (SH3-deleted/WT medrep) (BUD14) | medrep (log2 median colony size normalized to plate background, PCA score) (ABP1) | medrep (log2 median colony size normalized to plate background, PCA score) [1] | Score [1] | medrep (log2 median colony size normalized to plate background, PCA score) (BOI2) | medrep (log2 median colony size normalized to plate background, PCA score) (BEM1-2) | medrep (log2 median colony size normalized to plate background, PCA score) (BOI1) | Ratio (SH3-deleted/WT medrep) (BOI1) | also measured
YBR234C | 5.076 | 4.45 | 2.151 | 1.638 | 0.1 | 5.488 | 5.2 | 0 | 2.566 | 2.151 |  |  | 
YDL229W | 5.103 | 4.468 | 3.594 | 3.548 |  | 5.461 | 5.405 | 0 | 3.977 | 3.594 | 2.407 | 2.5 | 
NCK2 WT |  |  |  |  |  |  |  |  |  |  |  |  | Log2 ratio average (PAK1; [2]): 0; Log2 ratio on WT R1 (PAK1; replicate R1): 0; Ratio on WT R1 (PAK1; replicate R1): 1; Log2 ratio on WT R3 (PAK1; replicate R3): 0; Ratio on WT R3 (PAK1; replicate R3): 1; Log2 ratio on WT R4 (PAK1; replicate R4): 0; Ratio on WT R4 (PAK1; replicate R4): 1; Log2 ratio average (P130CAS/BCAR1; [2]): 0; Log2 ratio on WT R1 (P130CAS/BCAR1; replicate R1): 0; Ratio on WT R1 (P130CAS/BCAR1; replicate R1): 1; Log2 ratio on WT R3 (P130CAS/BCAR1; replicate R3): 0; Ratio on WT R3 (P130CAS/BCAR1; replicate R3): 1; Log2 ratio on WT R4 (P130CAS/BCAR1; replicate R4): 0; Ratio on WT R4 (P130CAS/BCAR1; replicate R4): 1
YER155C |  |  |  | 1.311 | 0.1 |  |  |  | 1.649 |  | 1.496 | 0.1 | Ratio (SH3-deleted/WT medrep) (BOI2; [3]): 0.1
YCR088W (PWATAEYDYDAAEDNELTFVENDKIINIEFVDDDWWLGELEKDGSKGLFPSNYVSLGN) | 4.833 | 4.666 | 1.996 |  |  | 5.528 | 4.931 | 0 | 2.0061 | 1.996 |  |  | Ratio (SH3-deleted/WT medrep) (BEM1-1; [3]): 0.1
